Where “and” joins values, the source holds several entries; their conditions need not be identical. Identical values can stand only once. Inconclusive results and toxic doses are left out. Rule as the data show it: active = T/C of 150% or more; inactive = T/C below 125%.
Test system: L1210 leukemia ip in BDF1 mice, survival T/C
Experiment: NCI In Vivo Anticancer Drug Screen. Data for tumor model L1210 Leukemia (intraperitoneal) in B6D2F1 (BDF1) mice
Details: endpoint: mean survival time, higher = longer survival
Summary of the method: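 Tumor cells were implanted, animals were treated, and survival was followed. The result divides the treated measurement by the vehicle-control measurement.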

[1] = dose: 100.0 mg/kg/injection, schedule: Q04DX003 (ip), vehicle: saline with Tween-80
[2] = dose: 200.0 mg/kg/injection, schedule: Q04DX003 (ip), vehicle: saline with Tween-80
[3] = dose: 400.0 mg/kg/injection, schedule: Q04DX003 (ip), vehicle: saline with Tween-80
[4] = dose: 100.0 mg/kg/injection, schedule: Q01DX009 (ip), vehicle: Klucel (hydroxypropylcellulose) (HPC)
[5] = dose: 200.0 mg/kg/injection, schedule: Q01DX009 (ip), vehicle: Klucel (hydroxypropylcellulose) (HPC)
[6] = dose: 400.0 mg/kg/injection, schedule: Q01DX009 (ip), vehicle: Klucel (hydroxypropylcellulose) (HPC)
[7] = dose: 100.0 mg/kg/injection, schedule: Q01DX001 (ip), vehicle: saline
[8] = dose: 200.0 mg/kg/injection, schedule: Q01DX001 (ip), vehicle: saline
[9] = dose: 400.0 mg/kg/injection, schedule: Q01DX001 (ip), vehicle: saline
[10] = dose: 50.0 mg/kg/injection, schedule: Q04DX002 (ip), vehicle: Klucel (hydroxypropylcellulose) (HPC)
[11] = dose: 200.0 mg/kg/injection, schedule: Q04DX002 (ip), vehicle: Klucel (hydroxypropylcellulose) (HPC)

Measured: T/C

O=C(Nc1ccc(C(=O)Nc2ccc(C3=NCCCN3)cc2)cc1)Nc1ccc(C2=NCCCN2)cc1
inactive: dose: 0.94 mg/kg/injection, schedule: Q01DX Z (ip), vehicle: saline 103 % of control | dose: 1.88 mg/kg/injection, schedule: Q01DX Z (ip), vehicle: saline 117 % of control | dose: 18.8 mg/kg/injection, schedule: Q01DX004 (oral), vehicle: saline 94 % of control | dose: 37.5 mg/kg/injection, schedule: Q01DX009 (oral), vehicle: saline 91 % of control | dose: 75.0 mg/kg/injection, schedule: Q01DX009 (oral), vehicle: saline 93 % of control | dose: 150.0 mg/kg/injection, schedule: Q01DX004 (oral), vehicle: saline 93 % of control

Nc1ccc(NC(=O)c2ccc(C(=O)Nc3ccc(N)cc3)cc2)cc1
inactive: dose: 30.0 mg/kg/injection, schedule: Q01DX Z (ip), vehicle: methylcellulose (MC) 103 % of control | dose: 60.0 mg/kg/injection, schedule: Q01DX Z (ip), vehicle: methylcellulose (MC) 103 % of control | dose: 120.0 mg/kg/injection, schedule: Q01DX Z (ip), vehicle: methylcellulose (MC) 95 % of control | dose: 125.0 mg/kg/injection, schedule: Q01DX Z (ip), vehicle: water 96 % of control | dose: 250.0 mg/kg/injection, schedule: Q01DX Z (ip), vehicle: water 93 % of control | dose: 500.0 mg/kg/injection, schedule: Q01DX Z (ip), vehicle: water 98 % of control

Cc1ccc(S(=O)(=O)CC(=O)NC(C)C)cc1
inactive: [1] 100 % of control | [2] 110 % of control | [3] 97 % of control

CCCCOc1ccc(OC(=O)Nc2ccc(C(=O)OCC)cc2)cc1
inactive: [4] 98 % of control | [5] 95 % of control | [6] 97 % of control

CCOC(=O)C1CC2CCC1CC2 (stereo unspecified)
inactive: dose: 25.0 mg/kg/injection, schedule: Q01DX005 (ip), vehicle: saline with Tween-80 92 % of control | dose: 25.0 mg/kg/injection, schedule: Q01DX009 (ip), vehicle: saline with Tween-80 102 % of control | dose: 25.0 mg/kg/injection, schedule: Q04DX002 (ip), vehicle: saline with Tween-80 106 % of control | dose: 50.0 mg/kg/injection, schedule: Q01DX005 (ip), vehicle: saline with Tween-80 92 % of control | dose: 50.0 mg/kg/injection, schedule: Q01DX009 (ip), vehicle: saline with Tween-80 94 % of control | dose: 50.0 mg/kg/injection, schedule: Q04DX002 (ip), vehicle: saline with Tween-80 94 % of control | dose: 100.0 mg/kg/injection, schedule: Q01DX005 (ip), vehicle: saline with Tween-80 89 % of control | dose: 100.0 mg/kg/injection, schedule: Q01DX009 (ip), vehicle: saline with Tween-80 109 % of control | dose: 100.0 mg/kg/injection, schedule: Q04DX002 (ip), vehicle: saline with Tween-80 97 % of control and 103 % of control

CC(C)(C)N(Cc1ccccc1)Cc1ccccc1
inactive: [1] 96 % of control | [2] 98 % of control | [3] 96 % of control

CCc1occ(C(=O)OC)c1C1SCCS1
inactive: [7] 92 % of control | [8] 97 % of control | [9] 91 % of control

c1ccc(C2=NOC(c3ccccc3)C2)cc1 (stereo unspecified)
inactive: dose: 75.0 mg/kg/injection, schedule: Q01DX009 (ip), vehicle: Klucel (hydroxypropylcellulose) (HPC) 105 % of control | dose: 75.0 mg/kg/injection, schedule: Q04DX003 (ip), vehicle: Klucel (hydroxypropylcellulose) (HPC) 95 % of control | dose: 150.0 mg/kg/injection, schedule: Q01DX009 (ip), vehicle: Klucel (hydroxypropylcellulose) (HPC) 105 % of control | dose: 150.0 mg/kg/injection, schedule: Q04DX003 (ip), vehicle: Klucel (hydroxypropylcellulose) (HPC) 100 % of control | dose: 300.0 mg/kg/injection, schedule: Q01DX009 (ip), vehicle: Klucel (hydroxypropylcellulose) (HPC) 100 % of control | dose: 300.0 mg/kg/injection, schedule: Q04DX003 (ip), vehicle: Klucel (hydroxypropylcellulose) (HPC) 95 % of control

COC(=O)C1(C)CCCC2(C)C3CCC4(C)CC3(CCC12)CC4S(=O)(=O)c1ccc(C)cc1 (stereo unspecified)
inactive: dose: 12.5 mg/kg/injection, schedule: Q04DX002 (ip), vehicle: Klucel (hydroxypropylcellulose) (HPC) 100 % of control | dose: 25.0 mg/kg/injection, schedule: Q04DX002 (ip), vehicle: Klucel (hydroxypropylcellulose) (HPC) 89 % of control | [10] 95 % of control and 106 % of control | [11] 86 % of control

CCCCNC(=O)NNC(=O)OCC
inactive: dose: 100.0 mg/kg/injection, schedule: Q04DX003 (ip), vehicle: saline 100 % of control | dose: 200.0 mg/kg/injection, schedule: Q04DX003 (ip), vehicle: saline 100 % of control | dose: 400.0 mg/kg/injection, schedule: Q04DX003 (ip), vehicle: saline 100 % of control

CC(=O)NC1CON(C(C)=O)C1=O (stereo unspecified)
inactive: dose: 100.0 mg/kg/injection, schedule: Q04DX003 (ip), vehicle: Klucel (hydroxypropylcellulose) (HPC) 97 % of control | dose: 200.0 mg/kg/injection, schedule: Q04DX003 (ip), vehicle: Klucel (hydroxypropylcellulose) (HPC) 103 % of control | dose: 400.0 mg/kg/injection, schedule: Q04DX003 (ip), vehicle: Klucel (hydroxypropylcellulose) (HPC) 103 % of control

Cc1cc([N+](=O)[O-])c(P(=O)(O)O)cc1Cl
inactive: dose: 75.0 mg/kg/injection, schedule: Q01DX001 (ip), vehicle: saline 93 % of control | dose: 150.0 mg/kg/injection, schedule: Q01DX001 (ip), vehicle: saline 91 % of control | dose: 300.0 mg/kg/injection, schedule: Q01DX001 (ip), vehicle: saline 96 % of control

CC1(C)N=C(N)N=C(N)N1c1cccc(CCCCOc2ccccc2)c1
inactive: dose: 6.25 mg/kg/injection, schedule: Q04DX003 (ip), vehicle: saline with Tween-80 101 % of control | dose: 12.5 mg/kg/injection, schedule: Q04DX003 (ip), vehicle: saline with Tween-80 106 % of control | dose: 25.0 mg/kg/injection, schedule: Q04DX003 (ip), vehicle: saline with Tween-80 95 % of control

O=C(Nc1ccccc1)OCC#CCOC(=O)Nc1ccccc1
inactive: [4] 97 % of control | [5] 90 % of control | [6] 100 % of control

Cc1ccc2cccc3c2c1S(=O)(=O)c1cccc2cccc(c12)C3
inactive: [7] 98 % of control | [8] 104 % of control | [9] 93 % of control

NC(=O)NC(=O)CCl
inactive: [10] 103 % of control | dose: 100.0 mg/kg/injection, schedule: Q04DX002 (ip), vehicle: Klucel (hydroxypropylcellulose) (HPC) 109 % of control | [11] 95 % of control

Cc1cc(Cl)c(C)c(Cl)c1Cl
inactive: dose: 100.0 mg/kg/injection, schedule: Q01DX001 (ip), vehicle: acetone 100 % of control | dose: 100.0 mg/kg/injection, schedule: Q01DX009 (ip), vehicle: acetone 92 % of control | dose: 100.0 mg/kg/injection, schedule: Q04DX003 (ip), vehicle: acetone 93 % of control | dose: 200.0 mg/kg/injection, schedule: Q01DX001 (ip), vehicle: acetone 97 % of control | dose: 200.0 mg/kg/injection, schedule: Q01DX009 (ip), vehicle: acetone 95 % of control | dose: 200.0 mg/kg/injection, schedule: Q04DX003 (ip), vehicle: acetone 97 % of control | dose: 400.0 mg/kg/injection, schedule: Q01DX001 (ip), vehicle: acetone 90 % of control | dose: 400.0 mg/kg/injection, schedule: Q01DX009 (ip), vehicle: acetone 95 % of control | dose: 400.0 mg/kg/injection, schedule: Q04DX003 (ip), vehicle: acetone 92 % of control

COc1ccc([N+](=O)[O-])cc1NC(=O)Oc1ccc(F)cc1Cl
inactive: dose: 50.0 mg/kg/injection, schedule: Q01DX009 (ip), vehicle: Klucel (hydroxypropylcellulose) (HPC) 108 % of control | [4] 111 % of control | [5] 90 % of control

Reference: PubChem BioAssay AID248 (DTP/NCI, 2004)
